Reference: patent US8106047B2, “Triazolophthalazines” (NYCOMED GmbH, priority 2005, dated 2012)

Legend:
HUVEC monolayers = assay: Inhibition of macromolecule (HRP) permeability of thrombin-stimulated HUVEC monolayers; assay type: cell-based, human; settings: Homo sapiens, 1 h; HUVEC on Transwells, 1 μM RP73401, 10 μM Motapizone, 1 mM SNP or 100 nM ANP, 1 U/ml thrombin, HRP passage after 60 min; read-out: Inhibition of SNP- or ANP-induced permeability, −log IC50 [mol/l] (converted)
Description: Method to Assess Inhibition of Macromolecule Permeability of HUVEC Monolayers
The procedure to measure macromolecule permeability of endothelial cell monolayers followed the method described by Langeler & van Hinsbergh (1988) with modifications. Human umbilical vein endothelial cells were isolated from umbilical cords according to standard procedures (Jaffe et al. 1973) and cultured in endothelial cell basal medium (EBM) supplemented with 2% FCS, 0.5 ng/ml VEGF, 10 ng/ml bFGF, 5 ng/ml EGF, 20 ng/ml Long R3 IGF-1, 0.2 μg/ml hydrocortisone, 1 μg/ml ascorbic acid, 22.5 μg/ml heparin, 50 μg/ml gentamicin, 50 ng/ml amphotericin B (EGM2 purchased from Promocell GmbH, Heidelberg, Germany). At confluency, cells were trypsinized and replated at 73000 cells per well on 3 μm polycarbonate filter Transwell inserts (Costar GmbH, Bodenheim, Germany) precoated with 10 μg cm^2−1 Fibronectin (Sigma, Taufkirchen, Germany). HUVECs were cultured in EGM2 (100 μl in the upper wells and 600 μl in the lower wells) over four days prior the experiments and medium was changed every other day. At the day of the experiment culture medium was replaced by M199 with 1% human serum albumin. Endothelial cells were preincubated with cyclic nucleotide modifiers (the selective PDE3 inhibitor motapizone, the selective PDE4 inhibitor RP73401, the cGMP generators ANP or SNP and PDE2 inhibitors) for 15 min. HUVECs were then stimulated with Thrombin (1 U ml^−1) (Sigma, Taufkichen, Germany) and horsh radish peroxidase (5 μg/ml) (Sigma, Taufkirchen, Germany) as the macromolecule marker protein was added to the upper wells. Following 1 h incubation time Transwells were removed and the activity of horsh radish peroxidase that penetrated the endothelial cell monolayer was measured in the lower wells with the 3,3′,5,5′-tetramethylbenzidine liquid substrate system from Sigma (Taufkirchen, Germany).
In parallel, compounds according to the invention can inhibit Thrombin-induced permeability of HUVEC monolayers for horsh radish peroxidase (HRP) as a macromolecule marker. […] The concentration-dependent inhibition of HRP permeability at different concentrations was assessed from the percent inhibition in the presence and absence of the PDE2 inhibitors and in the presence of 1 μM RP73401, 10 μM Motapizone and 100 nM ANP.
Inhibition of SNP- or ANP-Induced Permeability of HUVEC Monolayers:
HUVEC cells on 3 μm polycarbonate filters (Transwells) were preincubated with 1 μM RP73401 (to block PDE4) and 10 μM Motapizone (to block PDE3), 1 mM SNP or 100 nM ANP and test sample over 15 min and then stimulated with 1 U/ml thrombin. HRP passage into the lower wells was assessed after 60 min.

SMILES	melting point	IC50 (HUVEC monolayers)
CN(C)c1ccccc1-c1nnc2c3ccccc3c(Nc3cccc(NS(=O)(=O)N(C)C)c3)nn12 [Compound 26]	235 to 239 °C	0.501 to 126 nM
COc1ccc(-c2nnc3c4ccccc4c(Nc4ccc(NS(=O)(=O)N5CCOCC5)cc4)nn23)cc1 [Compound 6, Morpholine-4-sulfonic acid {4-[3-(4-methoxy-phenyl)-[1,2,4]triazolo[3,4-a]phthalazin-6-ylamino]-phenyl}-amide]	266 to 270 °C	0.501 to 126 nM
COc1ccccc1-c1nnc2c3ccccc3c(Nc3cccc(NS(=O)(=O)N(C)C)c3)nn12 [Compound 32]	229 to 233 °C	0.501 to 126 nM
COc1ccc(-c2nnc3c4ccccc4c(Nc4cccc(NS(=O)(=O)c5cccs5)c4)nn23)cc1 [Compound 17, Thiophene-2-sulfonic acid {3-[3-(4-methoxy-phenyl)-[1,2,4]triazolo[3,4-a]phthalazin-6-ylamino]-phenyl}-amide]	327 to 331 °C	0.501 to 126 nM
COc1ccc(-c2nnc3c4ccccc4c(Nc4ccc(NS(=O)(=O)Cc5ccccc5)cc4)nn23)cc1 [Compound 4, N-{4-[3-(4-Methoxy-phenyl)-[1,2,4]triazolo[3,4-a]phthalazin-6-ylamino]-phenyl}-1-phenyl-methanesulfonamide]	304 to 306 °C	0.501 to 126 nM
COc1ccc(-c2nnc3c4ccccc4c(Nc4ccc(S(=O)(=O)Nc5ncccn5)cc4)nn23)cc1 [Compound 21, 4-[3-(4-Methoxyphenyl)-[1,2,4]triazolo[3,4-a]phthalazin-6-ylamino]-N-pyrimidin-2-yl-benzenesulfonamide]	> 350 °C	0.501 to 126 nM

Continued, in another order:

melting point	SMILES	IC50 (HUVEC monolayers)
328 to 332 °C	COc1ccc(-c2nnc3c4ccccc4c(Nc4cccc(NS(=O)(=O)c5cccc(OC)c5)c4)nn23)cc1 [Compound 14, 3-Methoxy-N-{3-[3-(4-methoxy-phenyl)-[1,2,4]triazolo[3,4-a]phthalazin-6-ylamino]-phenyl}-benzenesulfonamide]	0.501 to 126 nM
275 to 280 °C	COc1ccc(-c2nnc3c4ccccc4c(Nc4cccc(S(=O)(=O)N5CCCCC5)c4)nn23)cc1 [Compound 30, [3-(4-Methoxy-phenyl)-[1,2,4]triazolo[3,4-a]phthalazin-6-yl]-[3-(piperidine-1-sulfonyl)-phenyl]-amine]	0.501 to 126 nM
336 to 346 °C (dec.)	COc1ccc(-c2nnc3c4ccccc4c(Nc4cccc(NS(=O)(=O)c5ccc(C)cc5)c4)nn23)cc1 [Compound 9, N-{3-[3-(4-Methoxy-phenyl)-[1,2,4]triazolo[3,4-a]phthalazin-6-ylamino]-phenyl}-4-methyl-benzenesulfonamide]	0.501 to 126 nM
290 to 293 °C	CN(C)S(=O)(=O)c1cccc(Nc2nn3c(-c4ccc(Br)cc4)nnc3c3ccccc23)c1 [Compound 28, [3-(N,N-dimethylsulfamoyl)-phenyl]-[3-(4-bromo-phenyl)-[1,2,4]triazolo[3,4-a]phthalazin-6-yl]-amine]	0.501 to 126 nM
328 to 331 °C (dec.)	COc1ccc(-c2nnc3c4ccccc4c(Nc4cccc(NS(=O)(=O)c5ccc(OC)cc5)c4)nn23)cc1 [Compound 10, 4-Methoxy-N-{3-[3-(4-methoxy-phenyl)-[1,2,4]triazolo[3,4-a]phthalazin-6-ylamino]-phenyl}-benzenesulfonamide]	0.501 to 126 nM
292 to 295 °C	COc1ccc(-c2nnc3c4ccccc4c(Nc4cccc(S(=O)(=O)N5CCCC5)c4)nn23)cc1 [Compound 29, [3-(4-Methoxy-phenyl)-[1,2,4]triazolo[3,4-a]phthalazin-6-yl]-[3-(pyrrolidine-1-sulfonyl)-phenyl]-amine]	0.501 to 126 nM
252 to 256 °C	CN(C)S(=O)(=O)Nc1cccc(Nc2nn3c(-c4ccccc4F)nnc3c3ccccc23)c1 [Compound 31]	0.501 to 126 nM
351 to 353 °C	COc1ccc(-c2nnc3c4ccccc4c(Nc4ccc(NS(=O)(=O)c5cccs5)cc4)nn23)cc1 [Compound 1, Thiophene-2-sulfonic acid {4-[3-(4-methoxy-phenyl)-[1,2,4]triazolo[3,4-a]phthalazin-6-ylamino]-phenyl}-amide]	0.501 to 126 nM
264 °C (dec.)	COc1ccc(-c2nnc3c4ccccc4c(Nc4cccc(NS(=O)(=O)N5CCOCC5)c4)nn23)cc1 [Compound 34, Morpholine-4-sulfonic acid {3-[3-(4-methoxy-phenyl)-[1,2,4]triazolo[3,4-a]phthalazin-6-ylamino]-phenyl}-amide]	0.501 to 126 nM
